Test results from US20240158418A1 (C4 Therapeutics, Inc., priority 2021, published 2024).

Target: T1, EGFR L858R-T790M (Homo sapiens, UniProt P00533, L858R/T790M)
T1 construct: NCI-H1975 (harboring EGFR heterozygous L858R-T790M mutations); host or cells: NCI-H1975
Test: EGFR degradation, Total EGFR (L858R-specific) HTRF, NCI-H1975
Assay type: cell-based
Conditions: Table 9B; NCI-H1975 cells, 6 hours, Total EGFR HTRF; read-out: H1975 EGFR DC50
In short: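 FRET signal from HTRF kits measured phospho-EGFR at pY1068 or total EGFR after 6 h treatment at 37 °C. Compounds ran as 11-point half-log dilutions from 10 μM in duplicate, in cells in phenol red-free RPMI with 10% FBS. Concentrations giving 50% inhibition or degradation were reported as IC50 or DC50.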

T1 sequence (P00533 25-1210 T790M/L858R): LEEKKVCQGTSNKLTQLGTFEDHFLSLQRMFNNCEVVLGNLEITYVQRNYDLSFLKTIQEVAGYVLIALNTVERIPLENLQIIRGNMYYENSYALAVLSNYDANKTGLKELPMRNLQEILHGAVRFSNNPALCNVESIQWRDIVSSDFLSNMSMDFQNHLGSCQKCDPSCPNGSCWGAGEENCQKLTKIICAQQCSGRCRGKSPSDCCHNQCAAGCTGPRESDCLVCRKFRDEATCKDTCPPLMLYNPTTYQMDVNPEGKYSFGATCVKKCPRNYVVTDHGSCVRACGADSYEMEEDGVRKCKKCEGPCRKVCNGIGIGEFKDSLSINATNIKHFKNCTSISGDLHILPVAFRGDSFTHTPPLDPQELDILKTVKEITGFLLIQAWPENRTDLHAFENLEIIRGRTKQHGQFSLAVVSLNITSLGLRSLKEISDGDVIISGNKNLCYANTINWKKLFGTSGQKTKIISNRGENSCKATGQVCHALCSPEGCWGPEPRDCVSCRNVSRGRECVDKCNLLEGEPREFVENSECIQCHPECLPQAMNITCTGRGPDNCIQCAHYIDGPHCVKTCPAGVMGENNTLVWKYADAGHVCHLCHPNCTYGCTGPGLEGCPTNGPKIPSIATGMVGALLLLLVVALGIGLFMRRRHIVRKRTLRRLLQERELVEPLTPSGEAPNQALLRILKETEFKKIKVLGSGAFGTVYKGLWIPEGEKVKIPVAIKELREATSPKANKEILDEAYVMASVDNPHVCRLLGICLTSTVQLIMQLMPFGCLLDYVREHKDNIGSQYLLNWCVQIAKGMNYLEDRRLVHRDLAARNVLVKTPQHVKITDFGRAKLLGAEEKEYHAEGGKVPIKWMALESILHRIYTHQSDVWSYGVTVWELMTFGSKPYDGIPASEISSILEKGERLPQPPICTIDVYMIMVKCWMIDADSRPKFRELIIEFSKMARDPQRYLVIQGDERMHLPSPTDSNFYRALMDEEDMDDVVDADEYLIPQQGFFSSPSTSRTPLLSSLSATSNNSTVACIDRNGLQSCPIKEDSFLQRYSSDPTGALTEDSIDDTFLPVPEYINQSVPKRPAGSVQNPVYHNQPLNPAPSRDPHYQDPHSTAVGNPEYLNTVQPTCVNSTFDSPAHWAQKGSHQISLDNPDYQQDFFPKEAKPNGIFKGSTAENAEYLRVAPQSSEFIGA

Row | SMILES | DC50 [nM]
1 | O=C1CCC(Nc2ccc(CC(=O)N3CCC(NC(=O)c4ccc(C#Cc5cc(F)c6c(c5)C(=O)N(C(C(=O)Nc5nccs5)c5ncn7c5CCC7)C6)cn4)CC3)cc2)C(=O)N1 (stereo not drawn) [Compound 93, 5-[2-[2-[1-(6,7-dihydro-5H-pyrrolo[1,2-c]imidazol-1-yl)-2-oxo-2-(thiazol-2-ylamino)ethyl]-7-fluoro-3-oxo-isoindolin-5-yl]ethynyl]-N-[1-[2-[4-[(2,6-dioxo-3-piperidyl)amino]phenyl]acetyl]-4-piperidyl]pyridine-2-carboxamide] | < 50
2 | O=C1CCN(c2ccc(N3CCC(O)(CC(=O)N4CC5(C4)CN(c4ccc(-c6cc(F)c7c(c6)C(=O)N(C(C(=O)Nc6nccs6)c6ncn8c6CCC8)C7)cc4)C5)CC3)c(C(F)(F)F)c2)C(=O)N1 (stereo not drawn) [Compound 168, 2-(6,7-dihydro-5H-pyrrolo[1,2-c]imidazol-1-yl)-2-[6-[4-[2-[2-[1-[4-(2,4-dioxohexahydropyrimidin-1-yl)-2-(trifluoromethyl)phenyl]-4-hydroxy-4-piperidyl]acetyl]-2,6-diazaspiro[3.3]heptan-6-yl]phenyl]-4-fluoro-1-oxo-isoindolin-2-yl]-N-thiazol-2-yl-acetamide] | 50 to 150
3 | Cn1nc(N2CCC(=O)NC2=O)c2ccc(C3CCN(CC(=O)N4CC5(C4)CN(c4ccc(-c6cc(F)c7c(c6)C(=O)N(C(C(=O)Nc6nccs6)c6ncn8c6C[C@@H](F)C8)C7)cc4)C5)CC3(F)F)cc21 (stereo partly drawn) [Compound 116, 2-[6-[4-[2-[2-[4-[3-(2,4-dioxohexahydropyrimidin-1-yl)-1-methyl-indazol-6-yl]-3,3-difluoro-1-piperidyl]acetyl]-2,6-diazaspiro[3.3]heptan-6-yl]phenyl]-4-fluoro-1-oxo-isoindolin-2-yl]-2-[(6R)-6-fluoro-6,7-dihydro-5H-pyrrolo[1,2-c]imidazol-1-yl]-N-thiazol-2-yl-acetamide] | < 50
4 | O=C1CCC(Nc2cnc(N3CCC(O)(CC(=O)N4CC5(C4)CN(c4ccc(-c6cc(F)c7c(c6)C(=O)N(C(C(=O)Nc6nccs6)c6ncn8c6CCC8)C7)cc4)C5)CC3)c(F)c2)C(=O)N1 (stereo not drawn) [Compound 90, 2-(6,7-dihydro-5H-pyrrolo[1,2-c]imidazol-1-yl)-2-(6-(4-(6-(2-(1-(5-((2,6-dioxopiperidin-3-yl)amino)-3-fluoropyridin-2-yl)-4-hydroxypiperidin-4-yl)acetyl)-2,6-diazaspiro[3.3]heptan-2-yl)phenyl)-4-fluoro-1-oxoisoindolin-2-yl)-N-(thiazol-2-yl)acetamide] | < 50
5 | Cn1nc(N2CCC(=O)NC2=O)c2ccc(C3CCN(CC(=O)N4CC5(C4)CN(c4ccc(-c6cc(F)c7c(c6)C(=O)N(C(C(=O)Nc6nccs6)c6ncn8c6CCC8)C7)cc4)C5)CC3F)cc21 (stereo not drawn) [Compound 133, 2-(6,7-dihydro-5H-pyrrolo[1,2-c]imidazol-1-yl)-2-[6-[4-[2-[2-[4-[3-(2,4-dioxohexahydropyrimidin-1-yl)-1-methyl-indazol-6-yl]-3-fluoro-1-piperidyl]acetyl]-2,6-diazaspiro[3.3]heptan-6-yl]phenyl]-4-fluoro-1-oxo-isoindolin-2-yl]-N-thiazol-2-yl-acetamide] | < 50
6 | Cn1nc(N2CCC(=O)NC2=O)c2ccc(C3CCN(CC(=O)N4CC5(C4)CN(c4ccc(-c6cc(F)c7c(c6)C(=O)N(C(C(=O)Nc6nccs6)c6ncn8c6CCC8)C7)cc4)C5)CC3F)cc21 (single isomer, unassigned; isomer 2) [Compound 125, 2-(6,7-dihydro-5H-pyrrolo[1,2-c]imidazol-1-yl)-2-[6-[4-[2-[2-[4-[3-(2,4-dioxohexahydropyrimidin-1-yl)-1-methyl-indazol-6-yl]-3-fluoro-1-piperidyl]acetyl]-2,6-diazaspiro[3.3]heptan-6-yl]phenyl]-4-fluoro-1-oxo-isoindolin-2-yl]-N-thiazol-2-yl-acetamide, isomer 2] | < 50
